Test results as given in patent US12458605B2, “Lipid nanoparticle” (National University Corporation Hokkaido University, priority 2020, dated 2025).

Tests used:
[1] = pKa of lipid nanoparticles by TNS (section II); type: physicochemical; conditions: F7siRNA-loaded LNP; compared with LNP of straight-chain CL4H6 or CL15H6 (FIG. 1)
Experimental: The pKa of lipid nanoparticles was measured using p-toluidino-2-naphthalenesulfonic acid (TNS). First, TNS (final concentration: 0.75 μM) and lipid nanoparticles (final concentration: […]) were mixed in buffer solution adjusted to each pH. The fluorescence intensity of the prepared mixture was measured with a microplate reader. The highest and lowest values among the measured values were taken as 100% and 0% charge rates respectively, and the pH indicating 50% charge rate was calculated as pKa.

spleen = assay: In vivo Fluc activity of FlucmRNA-loaded LNP by in vivo imaging, spleen; conditions: Balb/c mice, FlucmRNA-loaded LNP i.v. 0.1 mg mRNA/kg, 6 hours
Outline: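 Read-out is average radiance (p/s/cm2/sr, about 560 nm) from whole-animal imaging of liver and spleen 6 h post-dose, after tail-vein luciferin at 1.5 mg/mouse. Dosing was intravenous, 0.1 mg mRNA/kg, in 7-week-old female Balb/c mice.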

[2] = Average particle size (ζ-Average) and PDI by dynamic light scattering (Zetasizer Nano ZSP); type: physicochemical
Outline: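 Dynamic light scattering of the particles in PBS(−) gave both the polydispersity index and the ζ-Average mean size.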

[3] = F7siRNA-loaded LNP, 50:10:38.5:1.5, N/P ratio 6
[4] = FlucmRNA-loaded LNP, 50:10:38.5:1.5
[5] = FlucmRNA-loaded LNP, lipid:DSPC:cholesterol:DMG-PEG2K 50:10:38.5:1.5

Compound | pKa of lipid nanoparticle, compared [1] | Fluc Activity in spleen (spleen) | PDI [2, 3] | ζ-Average (nm) [2, 3] | PDI [2, 4] | ζ-Average (nm) [2, 5]
CCCN(CCC)CCCCC(O)(CCCCCCOC(=O)C(CCC(C)CC(C)(C)C)C(C)CC(C)(C)C)CCCCCCOC(=O)C(CCC(C)CC(C)(C)C)C(C)CC(C)(C)C (stereo not drawn) [CL4G6, 7-(4-(dipropylamino)butyl)-7-hydroxytridecan-1,13-diyl bis(2-(4.4-dimethylpentan-2-yl)-5,7,7-trimethyloctanoate)] | lower pKa | 2.08E+06 Avg Radiance [p/s/cm2/sr] | 0.048 | 85.14 nm | 0.030 | 81.21 nm
CCCCCCCCC(CCCCCC)C(=O)OCCCCCCC(O)(CCCCCCOC(=O)C(CCCCCC)CCCCCCCC)CCCCOC(=O)C1CCN(C)CC1 (stereo not drawn) [CL15F6] | lower pKa | 5.76E+06 Avg Radiance [p/s/cm2/sr] | 0.044 | 105.9 nm | 0.002 | 115.50 nm
